In patent publication US9951049B2, “Pyrazole linked benzimidazole conjugates and a process for preparation thereof” (Council of Scientific & Industrial Reseach, priority 2014, dated 2018):

What was measured:
[1] = test system: HCC-2998; assay: NCI SRB screen, HCC-2998; settings: Homo sapiens, HCC 2998, 48 h, read-out: GI50 values
[2] = test system: CNS cancer cell lines; assay: NCI SRB screen, CNS panel average; settings: Homo sapiens, 48 h, read-out: Log10 GI50 (converted)
[3] = test system: Melanoma cell lines; assay: NCI SRB screen, Melanoma panel average; settings: Homo sapiens, 48 h, read-out: Log10 GI50 (converted)
[4] = test system: SK-MEL-5; assay: NCI SRB screen, SK-MEL-5; settings: Homo sapiens, SK-MEL-5, 48 h, read-out: GI50 values, Melanoma, SK-MEL-5
[5] = test system: HOP-62; assay: NCI SRB screen, HOP-62; settings: Homo sapiens, HOP-62, 48 h, read-out: GI50 values
[6] = test system: M14; assay: NCI SRB screen, M14; settings: Homo sapiens, M14, 48 h, read-out: GI50 values
[7] = test system: MALME-3M; assay: NCI SRB screen, MALME-3M; settings: Homo sapiens, 48 h, read-out: GI50 values
[8] = test system: BT-549; assay: NCI SRB screen, BT-549; settings: Homo sapiens, BT-549, 48 h, read-out: GI50 values
[9] = test system: TK-10; assay: NCI SRB screen, TK-10; settings: Homo sapiens, TK-10, 48 h, read-out: GI50 values
[10] = test system: 786-0; assay: NCI SRB screen, 786-0; settings: Homo sapiens, 786-0, 48 h, read-out: GI50 values
[11] = test system: MDA-MB-435; assay: NCI SRB screen, MDA-MB-435 (Melanoma panel); settings: Homo sapiens, MDA-MB-435, 48 h, read-out: GI50 values
[12] = test system: OVCAR-4; assay: NCI SRB screen, OVCAR-4; settings: Homo sapiens, OVCAR-4, 48 h, read-out: GI50 values
[13] = test system: Colon cancer cell lines; assay: NCI SRB screen, Colon panel average; settings: Homo sapiens, 48 h, read-out: Log10 GI50 (converted)
[14] = test system: SR; assay: NCI SRB screen, SR; settings: Homo sapiens, 48 h, read-out: GI50 values
[15] = test system: ACHN; assay: NCI SRB screen, ACHN; settings: Homo sapiens, 48 h, read-out: GI50 values
[16] = test system: NCI/ADR-RES; assay: NCI SRB screen, NCI/ADR-RES; settings: Homo sapiens, 48 h, read-out: GI50 values
[17] = test system: SN12C; assay: NCI SRB screen, SN12C; settings: Homo sapiens, 48 h, read-out: GI50 values
[18] = test system: HCT-116; assay: NCI SRB screen, HCT-116; settings: Homo sapiens, HCT-116, 48 h, read-out: GI50 values
[19] = test system: T-47D; assay: NCI SRB screen, T-47D; settings: Homo sapiens, T47D, 48 h, read-out: GI50 values
[20] = test system: Renal cancer cell lines; assay: NCI SRB screen, Renal panel average; settings: Homo sapiens, 48 h, read-out: Log10 GI50 (converted)
[21] = test system: NCI-H522; assay: NCI SRB screen, NCI-H522; settings: Homo sapiens, NCI-H522, 48 h, read-out: GI50 values, Non-small cell lung, NCI-H522
[22] = test system: A549/ATCC; assay: NCI SRB screen, A549/ATCC; settings: Homo sapiens, A549, 48 h, read-out: GI50 values
[23] = test system: K-562; assay: NCI SRB screen, K-562; settings: Homo sapiens, K562, 48 h, read-out: GI50 values
[24] = test system: OVCAR-5; assay: NCI SRB screen, OVCAR-5; settings: Homo sapiens, OVCAR-5, 48 h, read-out: GI50 values
[25] = test system: NCI-H226; assay: NCI SRB screen, NCI-H226; settings: Homo sapiens, NCI-H226, 48 h, read-out: GI50 values
[26] = test system: HL-60(TB); assay: NCI SRB screen, HL-60(TB); format: cell-based; settings: Homo sapiens, Leukemia, 48 h
[27] = test system: HS 578T; assay: NCI SRB screen, HS 578T; settings: Homo sapiens, 48 h, read-out: GI50 values
[28] = test system: SF-295; assay: NCI SRB screen, SF-295; settings: Homo sapiens, SF-295, 48 h, read-out: GI50 values
[29] = test system: CCRF-CEM; assay: NCI SRB screen, CCRF-CEM; settings: Homo sapiens, 48 h, read-out: GI50 values
[30] = test system: OVCAR-3; assay: NCI SRB screen, OVCAR-3; settings: Homo sapiens, OVCAR-3, 48 h, read-out: GI50 values
[31] = test system: Non-small-cell lung cancer cell lines; assay: NCI SRB screen, Non-small-cell lung panel average; settings: Homo sapiens, 48 h, read-out: Log10 GI50 (converted)
[32] = test system: SNB-19; assay: NCI SRB screen, SNB-19; settings: Homo sapiens, SNB-19, 48 h, read-out: GI50 values
[33] = test system: MDA-MB-231/ATCC; assay: NCI SRB screen, MDA-MB-231/ATCC; settings: Homo sapiens, MDA-MB-231, 48 h, read-out: GI50 values
[34] = test system: MCF7; assay: NCI SRB screen, MCF7; settings: Homo sapiens, MCF7, 48 h, read-out: GI50 values

SMILES | GI50 [1] | GI50 [2] | GI50 [3] | GI50 [5] | GI50 [6] | GI50 [7] | GI50 [8] | GI50 [9] | GI50 [10] | GI50 [11] | GI50 [12] | GI50 [13] | GI50 [14] | GI50 [15] | GI50 [16] | GI50 [17] | GI50 [18] | GI50 [19] | GI50 [20] | GI50 [21] | further results
Fc1ccc2[nH]c(-c3cc(-c4ccc5c(c4)OCO5)n[nH]3)nc2c1 [7g, 2-(3-(benzo[d][1,3]dioxol-5-yl)-1H-pyrazol-5-yl)-5-fluoro-1H-benzo[d]imidazole] | 5.37 µM | 6.31 µM | 4.57 µM | 8.54 µM | 4.17 µM | 2.75 µM | 2.16 µM | 1.3 µM | 7.13 µM | 5.43 µM | 1.37 µM | 5.37 µM | 4.95 µM | 3.64 µM | 4.43 µM | 4.95 µM | 4.5 µM | 3.21 µM | 4.57 µM | 2.56 µM | GI50 [4]: 1.46 µM; GI50 [22]: 3.53 µM; GI50 [23]: 4.81 µM; GI50 [24]: 6.44 µM; GI50 [25]: 4.21 µM; GI50 [26]: 2.74 µM; GI50 [27]: 9.53 µM; GI50 [28]: 4.2 µM; GI50 [29]: 2.65 µM; GI50 [30]: 5.32 µM; GI50 [31]: 5.37 µM; GI50 [32]: 10 µM; GI50 [33]: 2.22 µM; GI50 [34]: 3.53 µM
COc1cc(-c2cc(-c3nc4cc(Cl)ccc4[nH]3)[nH]n2)cc(OC)c1OC [8f, 5-chloro-2-(3-(3,4,5-trimethoxyphenyl)-1H-pyrazol-5-yl)-1H-benzo[d]imidazole] | 5.98 µM | 3.72 µM | 2.45 µM | 3.11 µM | 2.92 µM | 2.58 µM | 2.54 µM | 3.52 µM | 5.32 µM | 3.3 µM | 1.38 µM | 3.98 µM | 3.32 µM | 2.96 µM | 3.16 µM | 3.06 µM | 3.45 µM | 1.58 µM | 3.16 µM | 1.9 µM | GI50 [4]: 1.62 µM; GI50 [22]: 2.96 µM; GI50 [23]: 3.04 µM; GI50 [24]: 1.21 µM; GI50 [25]: 1.88 µM; GI50 [26]: 2.49 µM; GI50 [27]: 3.58 µM; GI50 [28]: 2.35 µM; GI50 [29]: 2.48 µM; GI50 [30]: 3.5 µM; GI50 [31]: 2.75 µM; GI50 [32]: 7.25 µM; GI50 [33]: 3.94 µM; GI50 [34]: 2.17 µM
COc1ccc2[nH]c(-c3cc(-c4cc(OC)c(OC)c(OC)c4)n[nH]3)nc2c1 [9f, 5-methoxy-2-(3-(3,4,5-trimethoxyphenyl)-1H-pyrazol-5-yl)-1H-benzo[d]imidazole] | 3.03 µM | 2.45 µM | 1.32 µM | 2.02 µM | 1.66 µM | 1.74 µM | 0.89 µM | 2.21 µM | 2.92 µM | 1.49 µM | 1.24 µM | 2.29 µM | 1.74 µM | 2.63 µM | 2.91 µM | 2.06 µM | 1.81 µM | 0.34 µM | 2.24 µM | 1.21 µM | GI50 [22]: 1.63 µM; GI50 [23]: 2.01 µM; GI50 [24]: 3.03 µM; GI50 [25]: 0.46 µM; GI50 [26]: 1.69 µM; GI50 [27]: 2.89 µM; GI50 [28]: 1.62 µM; GI50 [29]: 1.29 µM; GI50 [30]: 2.05 µM; GI50 [31]: 1.48 µM; GI50 [32]: 2.98 µM; GI50 [33]: 2.87 µM; GI50 [34]: 2.15 µM
